± gives the expanded uncertainty stated by the source.
Test: excess molar enthalpy (molar enthalpy of mixing); xn = mol fraction of the nth substance listed
Conditions: 298.15 K, 100 kPa, Liquid, Calvet calorimetry

Question: Which results are given for `CCCC[N+]1(C)CCCCC1.N#C[N-]C#N` [1-butyl-1-methylpiperidinium dicyanamide] + O?
Answer: excess molar enthalpy (x1 = 0.0639): -0.0355 ± 0.000574 kcal/mol; excess molar enthalpy (x1 = 0.0706): -0.0403 ± 0.000621 kcal/mol; excess molar enthalpy (x1 = 0.0846): -0.0509 ± 0.000741 kcal/mol; excess molar enthalpy (x1 = 0.101): -0.0634 ± 0.000908 kcal/mol; excess molar enthalpy (x1 = 0.1186): -0.0769 ± 0.00105 kcal/mol; excess molar enthalpy (x1 = 0.1379): -0.0917 ± 0.00124 kcal/mol; excess molar enthalpy (x1 = 0.1607): -0.109 ± 0.00143 kcal/mol; excess molar enthalpy (x1 = 0.1873): -0.127 ± 0.00167 kcal/mol; excess molar enthalpy (x1 = 0.2173): -0.145 ± 0.00189 kcal/mol; excess molar enthalpy (x1 = 0.249): -0.16 ± 0.00208 kcal/mol; excess molar enthalpy (x1 = 0.2797): -0.172 ± 0.0022 kcal/mol; excess molar enthalpy (x1 = 0.3103): -0.179 ± 0.00229 kcal/mol; excess molar enthalpy (x1 = 0.3414): -0.183 ± 0.00234 kcal/mol; excess molar enthalpy (x1 = 0.371): -0.185 ± 0.00237 kcal/mol; excess molar enthalpy (x1 = 0.4062): -0.184 ± 0.00237 kcal/mol; excess molar enthalpy (x1 = 0.4376): -0.181 ± 0.00232 kcal/mol; excess molar enthalpy (x1 = 0.4741): -0.176 ± 0.00227 kcal/mol; excess molar enthalpy (x1 = 0.5173): -0.167 ± 0.00215 kcal/mol; excess molar enthalpy (x1 = 0.5418): -0.162 ± 0.00208 kcal/mol; excess molar enthalpy (x1 = 0.5687): -0.155 ± 0.00198 kcal/mol; excess molar enthalpy (x1 = 0.5984): -0.146 ± 0.00189 kcal/mol; excess molar enthalpy (x1 = 0.6314): -0.136 ± 0.00177 kcal/mol; excess molar enthalpy (x1 = 0.6683): -0.124 ± 0.00163 kcal/mol; excess molar enthalpy (x1 = 0.6951): -0.115 ± 0.00153 kcal/mol; excess molar enthalpy (x1 = 0.7241): -0.105 ± 0.00139 kcal/mol; excess molar enthalpy (x1 = 0.7557): -0.0942 ± 0.00127 kcal/mol; excess molar enthalpy (x1 = 0.7902): -0.0816 ± 0.0011 kcal/mol; excess molar enthalpy (x1 = 0.8081): -0.0749 ± 0.00103 kcal/mol; excess molar enthalpy (x1 = 0.8268): -0.0677 ± 0.000932 kcal/mol; excess molar enthalpy (x1 = 0.8465): -0.0603 ± 0.00086 kcal/mol; excess molar enthalpy (x1 = 0.8671): -0.0529 ± 0.000765 kcal/mol; excess molar enthalpy (x1 = 0.8887): -0.0446 ± 0.000669 kcal/mol; excess molar enthalpy (x1 = 0.9114): -0.0354 ± 0.00055 kcal/mol; excess molar enthalpy (x1 = 0.9354): -0.0256 ± 0.000454 kcal/mol; excess molar enthalpy (x1 = 0.9606): -0.0152 ± 0.000335 kcal/mol; excess molar enthalpy (x1 = 0.9872): -0.00537 ± 0.000239 kcal/mol

Question: Which excess molar enthalpy (x1 = 0.0674) does the source give for `CCCC[N+]1(C)CCCC1.N#CN=C=[N-]` [1-butyl-1-methylpyrrolidinium dicyanamide] + O here?
Answer: -0.0479 ± 0.000717 kcal/mol

Question: And the excess molar enthalpy (x1 = 0.0744)?
Answer: -0.0542 ± 0.000789 kcal/mol

Question: And the excess molar enthalpy (x1 = 0.0892)?
Answer: -0.0681 ± 0.000956 kcal/mol

Question: What about the excess molar enthalpy (x1 = 0.1064) of the same compound?
Answer: -0.0843 ± 0.00115 kcal/mol

Question: And the excess molar enthalpy (x1 = 0.1248)?
Answer: -0.102 ± 0.00136 kcal/mol

Question: What about the excess molar enthalpy (x1 = 0.145) of the same compound?
Answer: -0.121 ± 0.0016 kcal/mol

Question: What about the excess molar enthalpy (x1 = 0.1688) of the same compound?
Answer: -0.142 ± 0.00184 kcal/mol

Question: And the excess molar enthalpy (x1 = 0.1964)?
Answer: -0.164 ± 0.00213 kcal/mol

Question: What about the excess molar enthalpy (x1 = 0.2275) of the same compound?
Answer: -0.185 ± 0.00237 kcal/mol

Question: And the excess molar enthalpy (x1 = 0.2604)?
Answer: -0.203 ± 0.00263 kcal/mol

Question: What about the excess molar enthalpy (x1 = 0.2921) of the same compound?
Answer: -0.215 ± 0.00263 kcal/mol

Question: What about the excess molar enthalpy (x1 = 0.3236) of the same compound?
Answer: -0.223 ± 0.00287 kcal/mol

Question: And the excess molar enthalpy (x1 = 0.3554)?
Answer: -0.227 ± 0.00287 kcal/mol

Question: What about the excess molar enthalpy (x1 = 0.3857) of the same compound?
Answer: -0.228 ± 0.00287 kcal/mol

Question: What about the excess molar enthalpy (x1 = 0.4217) of the same compound?
Answer: -0.225 ± 0.00287 kcal/mol

Question: What about the excess molar enthalpy (x1 = 0.4535) of the same compound?
Answer: -0.22 ± 0.00287 kcal/mol

Question: What about the excess molar enthalpy (x1 = 0.4906) of the same compound?
Answer: -0.212 ± 0.00263 kcal/mol

Question: And the excess molar enthalpy (x1 = 0.5342)?
Answer: -0.2 ± 0.00263 kcal/mol

Question: What about the excess molar enthalpy (x1 = 0.5589) of the same compound?
Answer: -0.192 ± 0.00239 kcal/mol

Question: And the excess molar enthalpy (x1 = 0.5859)?
Answer: -0.183 ± 0.00234 kcal/mol

Question: And the excess molar enthalpy (x1 = 0.6157)?
Answer: -0.172 ± 0.0022 kcal/mol

Question: What about the excess molar enthalpy (x1 = 0.6486) of the same compound?
Answer: -0.159 ± 0.00206 kcal/mol

Question: What about the excess molar enthalpy (x1 = 0.6853) of the same compound?
Answer: -0.144 ± 0.00186 kcal/mol

Question: What about the excess molar enthalpy (x1 = 0.7119) of the same compound?
Answer: -0.132 ± 0.00172 kcal/mol

Question: And the excess molar enthalpy (x1 = 0.7406)?
Answer: -0.119 ± 0.00158 kcal/mol

Question: What about the excess molar enthalpy (x1 = 0.7718) of the same compound?
Answer: -0.106 ± 0.00141 kcal/mol

Question: And the excess molar enthalpy (x1 = 0.8057)?
Answer: -0.0907 ± 0.00122 kcal/mol

Question: And the excess molar enthalpy (x1 = 0.8233)?
Answer: -0.0828 ± 0.00112 kcal/mol

Question: And the excess molar enthalpy (x1 = 0.8417)?
Answer: -0.0752 ± 0.00103 kcal/mol

Question: What about the excess molar enthalpy (x1 = 0.8609) of the same compound?
Answer: -0.0662 ± 0.000932 kcal/mol

Question: What about the excess molar enthalpy (x1 = 0.881) of the same compound?
Answer: -0.0564 ± 0.000813 kcal/mol

Question: And the excess molar enthalpy (x1 = 0.9021)?
Answer: -0.046 ± 0.000693 kcal/mol

Question: What about the excess molar enthalpy (x1 = 0.9243) of the same compound?
Answer: -0.0352 ± 0.00055 kcal/mol

Question: And the excess molar enthalpy (x1 = 0.9475)?
Answer: -0.0238 ± 0.00043 kcal/mol

Question: What about the excess molar enthalpy (x1 = 0.9719) of the same compound?
Answer: -0.0113 ± 0.000287 kcal/mol

Question: What about the excess molar enthalpy (x1 = 0.9976) of the same compound?
Answer: -0.000599 ± 0.000215 kcal/mol
